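Briefly, cells in 96-well plates were exposed to five compound concentrations for 48 h, and endpoints were estimated by linear interpolation. TGI: total growth inhibition.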
How the values were obtained:
Assay in all cases: inhibition of tumour cell growth, NCI panel, 48 h
A549 NSCLC = test system: A549 NSCLC
K-562 leukemia = test system: K-562 leukemia
LOX IMVI melanoma = test system: LOX IMVI melanoma
MALME-3M melanoma = test system: MALME-3M melanoma
SF-268 CNS = test system: SF-268 CNS
SK-MEL-28 melanoma = test system: SK-MEL-28 melanoma
SK-OV-3 ovarian = test system: SK-OV-3 ovarian
SR leukemia = test system: SR leukemia
UACC-62 melanoma = test system: UACC-62 melanoma
KM12 colon = test system: KM12 colon

Structure (SMILES)	TGI (A549 NSCLC)	TGI (K-562 leukemia)	TGI (LOX IMVI melanoma)	TGI (MALME-3M melanoma)	TGI (SF-268 CNS)	TGI (SK-MEL-28 melanoma)	TGI (SK-OV-3 ovarian)	TGI (SR leukemia)	TGI (UACC-62 melanoma)	TGI (KM12 colon)
CSc1c(C(=O)Nc2ccc(C)cc2)c(N)nn1-c1ccccc1	> 100 µM	> 100 µM	> 100 µM	75.7 µM	> 100 µM	> 100 µM	> 100 µM	> 100 µM	> 100 µM	
N#Cc1ncn(-c2ccccc2)c1N	> 100 µM	> 100 µM	> 100 µM	> 100 µM	> 100 µM	> 100 µM	> 100 µM	> 100 µM	> 100 µM	> 100 µM
OC1c2ccccc2[C@@H]2[C@H]1[C@@H](c1ccccc1)C1(Cc3ccccc3C1O)[C@H]2c1ccccc1 (some centres not stated)	14.2 µM	10.7 µM	7.04 µM	17.9 µM	24.1 µM	22.1 µM	23 µM	4.49 µM	20.6 µM	8.25 µM
CN1CCN(c2nc3ccccc3nc2C(=O)c2ccc(Cl)cc2)CC1	> 100 µM	> 100 µM	> 100 µM	48.1 µM	> 100 µM	> 100 µM	> 100 µM	> 100 µM	76.2 µM	> 100 µM
CSC(SC)=C1C(=O)NN=C1C	> 100 µM	> 100 µM	> 100 µM	> 100 µM	> 100 µM	> 100 µM	> 100 µM	> 100 µM	> 100 µM	> 100 µM
O=C(O)C(Cc1ccc2c(c1)CCC2)(Cc1ccc2c(c1)CCC2)C(=O)O	> 100 µM	> 100 µM	> 100 µM	> 100 µM	> 100 µM	> 100 µM	> 100 µM	> 100 µM	> 100 µM	> 100 µM
Cc1cc(C)c(S(=O)(=O)N[C@@H](/C=C(\Br)CO)C(C)C)c(C)c1	> 100 µM	50.4 µM	36.3 µM	61.6 µM	> 100 µM	> 100 µM	> 100 µM	68.8 µM	28.2 µM	> 100 µM
Cc1ccc(S(=O)(=O)NC(=O)NC(CO)C(=O)O)cc1 (configuration not stated)	> 100 µM	> 100 µM	> 100 µM	> 100 µM	> 100 µM	> 100 µM	> 100 µM	> 100 µM	> 100 µM	> 100 µM
N#Cc1cccc(C2ON=C(c3ccc([N+](=O)[O-])cc3)N2C23CC4CC(CC(C4)C2)C3)c1 (configuration not stated)	> 100 µM	> 100 µM	> 100 µM	> 100 µM	> 100 µM	> 100 µM	> 100 µM	> 100 µM	> 100 µM	> 100 µM
CC(=O)OCC1OC(Nc2ccc3nc(C)n(-c4cccc(C)c4)c(=O)c3c2)C(OC(C)=O)C(OC(C)=O)C1OC(C)=O (configuration not stated)		> 62.5 µM	> 62.5 µM	> 62.5 µM	> 62.5 µM	> 62.5 µM		> 62.5 µM	> 62.5 µM	> 62.5 µM
O=C1C(C(O)(C(F)(F)Cl)C(F)(F)Cl)CCC1C(O)(C(F)(F)Cl)C(F)(F)Cl (configuration not stated)	> 10 µM	> 10 µM	> 10 µM	> 10 µM	> 10 µM	> 10 µM	> 10 µM	> 10 µM	> 10 µM	> 10 µM
O=C(NCCN1C(=O)CN=C(c2ccc(Cl)cc2)c2cc(Cl)ccc21)OCc1ccccc1	32.7 µM	31.1 µM	33.9 µM	31.6 µM	29.9 µM	> 100 µM	> 100 µM	33.3 µM	38.7 µM	32.4 µM
COc1cc2c(cc1OC)C1Cc3ccccc3CCN1CC2 (configuration not stated)	> 100 µM	> 100 µM	> 100 µM	> 100 µM	> 100 µM	> 100 µM	> 100 µM	> 100 µM	> 100 µM	> 100 µM
CN(C)CCOc1ccc(I)cc1Cc1ccccc1	30.5 µM	11.2 µM	19.2 µM	29.9 µM	27.4 µM	16.6 µM	33 µM	7.81 µM	13.1 µM	27 µM
CC12CC3CC/C(=N\O)C(C1)C3(N1CCOCC1)C/C2=N/O (configuration not stated)	> 100 µM	> 100 µM	> 100 µM	> 100 µM	> 100 µM	> 100 µM	> 100 µM	> 100 µM	> 100 µM	> 100 µM
CSCCC(NCc1c(O)ccc2ccc(=O)oc12)C(=O)O (configuration not stated)	> 100 µM	> 100 µM	> 100 µM	> 100 µM	> 100 µM	> 100 µM	> 100 µM	> 100 µM	> 100 µM	> 100 µM
COC(=O)c1ccc2c(c1)CC1(C2)Cc2cc3c(c(C(=O)OC)c2C1)CCCC3 (configuration not stated)	> 100 µM	> 100 µM	> 100 µM	> 100 µM	> 100 µM	> 100 µM	> 100 µM	> 100 µM	> 100 µM	> 100 µM
CC(C)Nc1[nH]c(C(=O)c2ccccc2)c(N)c1C(=S)Nc1ccccc1	> 100 µM	> 100 µM	80.4 µM	43.8 µM	> 100 µM	35.1 µM	> 100 µM	> 100 µM	35.2 µM	> 100 µM
Cc1cccc(/C=N/NC(=S)NCc2ccccn2)n1	> 100 µM	> 100 µM	> 100 µM	> 100 µM	> 93 µM	> 100 µM	97.7 µM	> 100 µM	54.3 µM	> 100 µM
CCC1(OC(=O)CN2CCN(CCO)CC2)C(=O)OCc2c1cc1n(c2=O)Cc2cc3ccccc3nc2-1 (configuration not stated)	29.5 µM	26.2 µM	1.58 µM	12 µM	13.2 µM	39.2 µM	14.7 µM	0.305 µM	1.05 µM	4.49 µM
O/N=c1/ccn(O)c2ccccc12	6.74 µM	> 19.9 µM	5.67 µM	18.9 µM	5.74 µM	3.16 µM	3.26 µM	55.8 µM	2.53 µM	5.25 µM
CCOC(=O)N1CCN(Cc2cc(=O)n3cc(C)ccc3n2)CC1	> 100 µM	> 100 µM	> 100 µM	> 100 µM	> 100 µM	> 100 µM	> 100 µM	> 100 µM	> 100 µM	> 100 µM

From PubChem BioAssay (NCI)
